Results from PMC12090182, “Repurposing of the RIPK1-Selective Benzo[1,4]oxazepin-4-one Scaffold for the Development of a Type III LIMK1/2 Inhibitor” (ACS Chemical Biology, 2025).

Experiments:
Assay type in all cases: cell-based
Details in all cases: HEK-293T; 1 μM inhibitor, HEK293T cells
AXL = AXL (Homo sapiens, UniProt P30530)
Experimental: (§1) For plate preparation, a transfection mix was prepared in white 384-well small-volume plates (Greiner, cat. no. 784075) by preplating 3 μL of 20 μL/mL FuGene HD (Promega, cat. no. E2311), diluted in an Opti-MEM medium (Gibco, cat. no. 11058-021). One μL of DNA from both DNA vector source plates of the K192 kit was added using an Echo 550 acoustic dispenser (Beckman Coulter). The mix was incubated for 30 min, and 6 μL of HEK293T cells in an Opti-MEM medium was added. The proteins were allowed to express for 20 h. After expression, Tracer K10 was added using the concentrations recommended in the K192 technical manual and a 1 μM inhibitor was added to every second well. […] Five μL of substrate solution was added to every well, and filtered luminescence was measured on a PHERAstar plate reader (BMG Labtech) equipped with a luminescence filter pair (450 nm BP filter (donor) and a 610 nm LP filter (acceptor)). For every kinase, occupancy was calculated and plotted using GraphPad Prism 10 (Table S5).

PAK4 = PAK4 (Homo sapiens, UniProt O96013)
PAK4, sequence (O96013 whole entry): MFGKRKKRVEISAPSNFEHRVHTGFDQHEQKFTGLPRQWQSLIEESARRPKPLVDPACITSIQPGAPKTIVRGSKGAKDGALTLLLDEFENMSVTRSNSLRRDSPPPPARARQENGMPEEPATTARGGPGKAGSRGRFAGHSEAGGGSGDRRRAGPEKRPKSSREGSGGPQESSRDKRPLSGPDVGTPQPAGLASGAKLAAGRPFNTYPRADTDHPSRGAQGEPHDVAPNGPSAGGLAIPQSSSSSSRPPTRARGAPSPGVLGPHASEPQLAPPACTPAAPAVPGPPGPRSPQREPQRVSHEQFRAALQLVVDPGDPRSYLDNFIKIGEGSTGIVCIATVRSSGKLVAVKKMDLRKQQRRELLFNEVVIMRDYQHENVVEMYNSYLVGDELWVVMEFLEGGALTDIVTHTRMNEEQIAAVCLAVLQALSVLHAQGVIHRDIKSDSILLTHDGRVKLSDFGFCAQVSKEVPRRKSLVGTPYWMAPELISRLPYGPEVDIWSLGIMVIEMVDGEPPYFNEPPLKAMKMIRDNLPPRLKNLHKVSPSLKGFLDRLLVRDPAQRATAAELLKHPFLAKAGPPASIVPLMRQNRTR
Experimental: as §1

MAP3K19 = MAP3K19 (Homo sapiens, UniProt Q56UN5)
Experimental: as §1

MAPK8 = MAPK8 (Homo sapiens, UniProt P45983)
Experimental: as §1

TBK1 = TBK1 (Homo sapiens, UniProt Q9UHD2)
Experimental: as §1

BTK = target: T1, BTK (Homo sapiens, UniProt Q06187)
T1 construct: full-length LIMK1/2, RIPK1, BTK, and LRRK2 cloned in a frame in a NanoLuc-vector (Promega); host or cells: HEK293T
T1 sequence (Q06187 whole entry): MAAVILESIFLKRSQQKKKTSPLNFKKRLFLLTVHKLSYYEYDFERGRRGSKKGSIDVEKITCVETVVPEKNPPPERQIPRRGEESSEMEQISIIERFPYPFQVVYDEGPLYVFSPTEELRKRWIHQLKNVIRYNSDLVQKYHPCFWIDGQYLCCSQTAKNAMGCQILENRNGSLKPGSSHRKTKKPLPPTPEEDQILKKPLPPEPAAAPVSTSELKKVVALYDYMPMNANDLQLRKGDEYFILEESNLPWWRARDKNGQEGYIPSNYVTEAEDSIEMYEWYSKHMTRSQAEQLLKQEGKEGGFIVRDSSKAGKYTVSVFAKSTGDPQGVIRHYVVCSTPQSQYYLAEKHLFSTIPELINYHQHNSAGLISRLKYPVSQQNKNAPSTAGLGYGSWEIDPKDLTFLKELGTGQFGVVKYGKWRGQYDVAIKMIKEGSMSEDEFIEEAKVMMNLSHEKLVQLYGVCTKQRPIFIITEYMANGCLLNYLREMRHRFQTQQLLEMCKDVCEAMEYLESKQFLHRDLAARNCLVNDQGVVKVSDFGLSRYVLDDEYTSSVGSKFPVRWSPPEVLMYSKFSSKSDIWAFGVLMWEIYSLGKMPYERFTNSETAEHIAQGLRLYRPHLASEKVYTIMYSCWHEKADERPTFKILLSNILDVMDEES
Experimental: as §1

PHKG1 = PHKG1 (Homo sapiens, UniProt Q16816)
Experimental: as §1

AAK1 = AAK1 (Homo sapiens, UniProt Q2M2I8)
Experimental: as §1

STK32B = STK32B (Homo sapiens, UniProt Q9NY57)
STK32B, sequence (Q9NY57 whole entry): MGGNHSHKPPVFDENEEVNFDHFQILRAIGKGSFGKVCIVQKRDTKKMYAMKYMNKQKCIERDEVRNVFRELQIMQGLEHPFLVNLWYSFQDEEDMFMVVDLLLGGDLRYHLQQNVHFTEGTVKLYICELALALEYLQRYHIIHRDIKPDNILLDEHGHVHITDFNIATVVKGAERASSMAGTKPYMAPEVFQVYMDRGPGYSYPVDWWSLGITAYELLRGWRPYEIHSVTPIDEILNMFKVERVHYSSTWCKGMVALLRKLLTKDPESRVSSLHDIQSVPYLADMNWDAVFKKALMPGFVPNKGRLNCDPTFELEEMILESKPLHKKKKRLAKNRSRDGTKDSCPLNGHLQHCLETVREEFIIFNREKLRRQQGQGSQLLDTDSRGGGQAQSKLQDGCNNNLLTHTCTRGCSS
Experimental: as §1

STK16 = STK16 (Homo sapiens, UniProt O75716)
Experimental: as §1

STK35 = STK35 (Homo sapiens, UniProt Q8TDR2)
STK35, sequence (Q8TDR2 whole entry): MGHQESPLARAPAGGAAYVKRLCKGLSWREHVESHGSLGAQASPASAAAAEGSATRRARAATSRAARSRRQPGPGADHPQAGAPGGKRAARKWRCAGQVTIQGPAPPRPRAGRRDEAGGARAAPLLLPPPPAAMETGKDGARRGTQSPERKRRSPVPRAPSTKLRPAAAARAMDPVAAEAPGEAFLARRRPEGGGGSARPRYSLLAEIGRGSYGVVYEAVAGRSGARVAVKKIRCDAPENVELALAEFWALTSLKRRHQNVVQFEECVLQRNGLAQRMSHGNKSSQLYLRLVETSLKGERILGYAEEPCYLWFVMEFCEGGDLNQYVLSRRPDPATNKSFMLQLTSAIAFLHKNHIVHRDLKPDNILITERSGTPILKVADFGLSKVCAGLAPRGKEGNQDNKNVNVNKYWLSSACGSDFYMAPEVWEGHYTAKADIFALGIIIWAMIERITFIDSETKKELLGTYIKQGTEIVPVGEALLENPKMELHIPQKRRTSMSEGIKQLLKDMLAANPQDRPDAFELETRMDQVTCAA
Experimental: as §1

AURKB = AURKB (Homo sapiens, UniProt Q96GD4)
Experimental: as §1

ULK2 = ULK2 (Homo sapiens, UniProt Q8IYT8)
Experimental: as §1

MARK2 = MARK2 (Homo sapiens, UniProt Q7KZI7)
Experimental: as §1

STK10 = STK10 (Homo sapiens, UniProt O94804)
Experimental: as §1

CAMK2D = CAMK2D (Homo sapiens, UniProt Q13557)
Experimental: as §1

LCK = LCK (Homo sapiens, UniProt P06239)
Experimental: as §1

AKT2 = AKT2 (Homo sapiens, UniProt P31751)
AKT2, sequence (P31751 whole entry): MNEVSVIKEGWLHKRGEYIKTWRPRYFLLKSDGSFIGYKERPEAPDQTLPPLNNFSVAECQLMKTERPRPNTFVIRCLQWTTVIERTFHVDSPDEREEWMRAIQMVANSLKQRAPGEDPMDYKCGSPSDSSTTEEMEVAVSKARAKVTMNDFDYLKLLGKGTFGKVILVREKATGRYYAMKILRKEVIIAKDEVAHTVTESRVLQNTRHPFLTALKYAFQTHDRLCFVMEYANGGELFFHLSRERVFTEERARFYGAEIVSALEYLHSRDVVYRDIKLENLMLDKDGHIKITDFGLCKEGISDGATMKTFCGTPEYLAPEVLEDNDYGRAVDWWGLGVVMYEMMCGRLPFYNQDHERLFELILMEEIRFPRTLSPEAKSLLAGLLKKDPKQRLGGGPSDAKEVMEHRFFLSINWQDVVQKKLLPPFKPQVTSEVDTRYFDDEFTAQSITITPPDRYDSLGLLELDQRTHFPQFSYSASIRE
Experimental: as §1

CDK5 = CDK5 (Homo sapiens, UniProt Q00535)
Experimental: as §1

SIK1 = SIK1 (Homo sapiens, UniProt P57059)
SIK1, sequence (P57059 whole entry): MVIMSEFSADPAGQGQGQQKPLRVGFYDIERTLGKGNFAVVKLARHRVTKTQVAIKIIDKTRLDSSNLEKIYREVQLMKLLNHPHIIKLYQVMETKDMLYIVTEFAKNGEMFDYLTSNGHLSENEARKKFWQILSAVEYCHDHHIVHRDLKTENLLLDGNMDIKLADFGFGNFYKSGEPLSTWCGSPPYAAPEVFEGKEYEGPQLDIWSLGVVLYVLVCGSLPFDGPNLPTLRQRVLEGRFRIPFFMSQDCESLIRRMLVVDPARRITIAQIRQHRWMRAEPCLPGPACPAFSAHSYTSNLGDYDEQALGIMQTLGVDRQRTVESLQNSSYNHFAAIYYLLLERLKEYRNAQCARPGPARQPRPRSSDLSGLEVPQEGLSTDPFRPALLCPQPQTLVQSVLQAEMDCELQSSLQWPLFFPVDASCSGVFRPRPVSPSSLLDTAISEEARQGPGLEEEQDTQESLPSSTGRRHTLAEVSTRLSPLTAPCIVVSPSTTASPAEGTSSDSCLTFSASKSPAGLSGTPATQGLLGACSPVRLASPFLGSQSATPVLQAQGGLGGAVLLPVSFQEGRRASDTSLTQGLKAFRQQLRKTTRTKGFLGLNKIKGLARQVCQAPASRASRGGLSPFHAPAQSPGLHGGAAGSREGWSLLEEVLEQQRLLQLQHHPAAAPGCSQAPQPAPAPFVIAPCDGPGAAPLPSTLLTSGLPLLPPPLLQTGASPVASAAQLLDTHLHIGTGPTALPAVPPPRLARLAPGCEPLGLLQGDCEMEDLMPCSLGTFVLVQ
Experimental: as §1

SBK3 = SBK3 (Homo sapiens, UniProt P0C264)
Experimental: as §1

PLK2 = PLK2 (Homo sapiens, UniProt Q9NYY3)
Experimental: as §1

EPHB4 = EPHB4 (Homo sapiens, UniProt P54760)
Experimental: as §1

CSNK2A1 = CSNK2A1 (Homo sapiens, UniProt P68400)
CSNK2A1, sequence (P68400 whole entry): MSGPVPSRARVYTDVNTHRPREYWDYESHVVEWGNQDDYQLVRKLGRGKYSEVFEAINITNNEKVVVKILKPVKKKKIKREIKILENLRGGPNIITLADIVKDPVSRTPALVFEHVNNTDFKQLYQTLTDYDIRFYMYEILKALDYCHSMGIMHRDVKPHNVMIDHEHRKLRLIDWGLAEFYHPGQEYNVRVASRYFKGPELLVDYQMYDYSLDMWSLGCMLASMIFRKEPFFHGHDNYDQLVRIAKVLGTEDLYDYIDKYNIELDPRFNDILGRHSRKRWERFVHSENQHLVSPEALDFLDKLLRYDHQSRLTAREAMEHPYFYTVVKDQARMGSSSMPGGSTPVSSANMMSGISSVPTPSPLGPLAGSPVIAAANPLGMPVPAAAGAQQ
Experimental: as §1

STK38 = STK38 (Homo sapiens, UniProt Q15208)
Experimental: as §1

TLK1 = TLK1 (Homo sapiens, UniProt Q9UKI8)
Experimental: as §1

NTRK1 = NTRK1 (Homo sapiens, UniProt P04629)
Experimental: as §1

ERN1 = ERN1 (Homo sapiens, UniProt O75460)
ERN1, sequence (O75460 19-977): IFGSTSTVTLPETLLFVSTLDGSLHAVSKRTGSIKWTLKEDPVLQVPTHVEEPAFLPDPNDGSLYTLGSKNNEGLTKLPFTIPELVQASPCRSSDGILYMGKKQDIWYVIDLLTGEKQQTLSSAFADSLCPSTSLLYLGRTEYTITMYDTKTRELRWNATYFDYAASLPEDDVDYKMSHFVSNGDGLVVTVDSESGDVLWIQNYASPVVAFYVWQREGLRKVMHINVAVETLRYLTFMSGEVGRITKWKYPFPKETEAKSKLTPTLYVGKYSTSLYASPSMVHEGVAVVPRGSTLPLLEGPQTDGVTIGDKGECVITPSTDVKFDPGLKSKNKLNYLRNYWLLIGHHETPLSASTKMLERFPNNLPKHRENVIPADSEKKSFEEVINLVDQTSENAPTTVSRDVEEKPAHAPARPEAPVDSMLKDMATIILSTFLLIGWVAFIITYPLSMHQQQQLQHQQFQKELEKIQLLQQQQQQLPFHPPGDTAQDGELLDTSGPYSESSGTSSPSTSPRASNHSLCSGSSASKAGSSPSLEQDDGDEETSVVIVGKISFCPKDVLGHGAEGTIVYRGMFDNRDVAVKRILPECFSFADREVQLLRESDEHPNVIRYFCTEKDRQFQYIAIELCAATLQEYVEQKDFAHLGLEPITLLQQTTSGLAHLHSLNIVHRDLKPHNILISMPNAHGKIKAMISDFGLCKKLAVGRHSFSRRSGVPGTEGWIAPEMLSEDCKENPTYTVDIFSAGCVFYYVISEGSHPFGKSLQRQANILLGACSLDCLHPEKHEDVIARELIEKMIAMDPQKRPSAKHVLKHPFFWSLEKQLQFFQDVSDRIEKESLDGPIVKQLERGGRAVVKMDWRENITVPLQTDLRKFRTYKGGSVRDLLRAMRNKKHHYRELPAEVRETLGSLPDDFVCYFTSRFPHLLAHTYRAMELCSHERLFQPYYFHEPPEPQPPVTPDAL
Experimental: as §1

JAK3 = JAK3 (Homo sapiens, UniProt P52333)
Experimental: as §1

CSNK1D = CSNK1D (Homo sapiens, UniProt P48730)
Experimental: as §1

ERN2 = ERN2 (Homo sapiens, UniProt Q76MJ5)
Experimental: as §1

FGFR4 = FGFR4 (Homo sapiens, UniProt P22455)
Experimental: as §1

TYRO3 = TYRO3 (Homo sapiens, UniProt Q06418)
Experimental: as §1

CHEK2 = CHEK2 (Homo sapiens, UniProt O96017)
Experimental: as §1

**Q.** How did the receptor occupancy at 1 µM (AXL) turn out when `CN1C(=O)[C@@H](N2CCc3c(nn(Cc4ccccc4)c3C(N)=O)C2=O)COc2cc(Cl)ccc21` [Compound 10, (S)-2-benzyl-6-(8-chloro-5-methyl-4-oxo-2,3,4,5-tetrahydrobenzo[b][1,4]oxazepin-3-yl)-7-oxo-4,5,6,7-tetrahydro-2H-pyrazolo[3,4-c]pyridine-3-carboxamide] was run?
**A.** The receptor occupancy at 1 µM was 2.28%.

**Q.** And the receptor occupancy at 1 µM (PAK4)?
**A.** Its receptor occupancy at 1 µM is 3.71%.

**Q.** And the receptor occupancy at 1 µM (MAP3K19)?
**A.** Its receptor occupancy at 1 µM is 10.7%.

**Q.** And the receptor occupancy at 1 µM (MAPK8)?
**A.** Its receptor occupancy at 1 µM is -11.5%.

**Q.** And the receptor occupancy at 1 µM (TBK1)?
**A.** Its receptor occupancy at 1 µM is 2.77%.

**Q.** And the receptor occupancy at 1 µM (BTK)?
**A.** Its receptor occupancy at 1 µM is -8.22%.

**Q.** And the receptor occupancy at 1 µM (PHKG1)?
**A.** The receptor occupancy at 1 µM was -0.896%.

**Q.** And the receptor occupancy at 1 µM (AAK1)?
**A.** The receptor occupancy at 1 µM was 0.814%.

**Q.** What about the receptor occupancy at 1 µM (STK32B) of the same molecule?
**A.** The receptor occupancy at 1 µM was -4.21%.

**Q.** And the receptor occupancy at 1 µM (STK16)?
**A.** The receptor occupancy at 1 µM was -1.63%.

**Q.** And the receptor occupancy at 1 µM (STK35)?
**A.** Its receptor occupancy at 1 µM is 1.56%.

**Q.** And the receptor occupancy at 1 µM (AURKB)?
**A.** The receptor occupancy at 1 µM was -2.1%.

**Q.** What about the receptor occupancy at 1 µM (ULK2) of the same molecule?
**A.** Its receptor occupancy at 1 µM is 2.12%.

**Q.** And the receptor occupancy at 1 µM (MARK2)?
**A.** Its receptor occupancy at 1 µM is 16.3%.

**Q.** And the receptor occupancy at 1 µM (STK10)?
**A.** Its receptor occupancy at 1 µM is -3.32%.

**Q.** What about the receptor occupancy at 1 µM (CAMK2D) of the same molecule?
**A.** The receptor occupancy at 1 µM was 5.75%.

**Q.** What about the receptor occupancy at 1 µM (LCK) of the same molecule?
**A.** Its receptor occupancy at 1 µM is -0.25%.

**Q.** And the receptor occupancy at 1 µM (AKT2)?
**A.** Its receptor occupancy at 1 µM is -1.95%.

**Q.** What about the receptor occupancy at 1 µM (CDK5) of the same molecule?
**A.** The receptor occupancy at 1 µM was -9.43%.

**Q.** What about the receptor occupancy at 1 µM (SIK1) of the same molecule?
**A.** The receptor occupancy at 1 µM was -3.59%.

**Q.** And the receptor occupancy at 1 µM (SBK3)?
**A.** Its receptor occupancy at 1 µM is -4.46%.

**Q.** What about the receptor occupancy at 1 µM (PLK2) of the same molecule?
**A.** Its receptor occupancy at 1 µM is 2.74%.

**Q.** And the receptor occupancy at 1 µM (EPHB4)?
**A.** Its receptor occupancy at 1 µM is 4.16%.

**Q.** What about the receptor occupancy at 1 µM (CSNK2A1) of the same molecule?
**A.** Its receptor occupancy at 1 µM is 3.96%.

**Q.** What about the receptor occupancy at 1 µM (STK38) of the same molecule?
**A.** The receptor occupancy at 1 µM was 4.93%.

**Q.** What about the receptor occupancy at 1 µM (TLK1) of the same molecule?
**A.** The receptor occupancy at 1 µM was 26.6%.

**Q.** What about the receptor occupancy at 1 µM (NTRK1) of the same molecule?
**A.** Its receptor occupancy at 1 µM is 0.821%.

**Q.** What about the receptor occupancy at 1 µM (ERN1) of the same molecule?
**A.** The receptor occupancy at 1 µM was -1.52%.

**Q.** And the receptor occupancy at 1 µM (JAK3)?
**A.** Its receptor occupancy at 1 µM is 4.78%.

**Q.** What about the receptor occupancy at 1 µM (CSNK1D) of the same molecule?
**A.** Its receptor occupancy at 1 µM is 0.69%.

**Q.** What about the receptor occupancy at 1 µM (ERN2) of the same molecule?
**A.** The receptor occupancy at 1 µM was -5.4%.

**Q.** And the receptor occupancy at 1 µM (FGFR4)?
**A.** Its receptor occupancy at 1 µM is 5%.

**Q.** What about the receptor occupancy at 1 µM (TYRO3) of the same molecule?
**A.** The receptor occupancy at 1 µM was -9.33%.

**Q.** What about the receptor occupancy at 1 µM (CHEK2) of the same molecule?
**A.** Its receptor occupancy at 1 µM is -1.73%.
